Data as given in US5321030A, “Creatine analogs having antiviral activity” (priority 1991, dated 1994).
Converted amounts (≈) assume the structure as drawn. Read-outs that look alike come from different tables or passages of the source.

How the values were obtained:
[1] = test system: Guinea Pig Cytomegalovirus, Strain 22122; assay: CPE reduction assay, guinea pig cytomegalovirus in GPE cells; type: cell-based; parameters: TI50 (CD50 ÷ ED50): unit not given here; conditions: for Average CPE: virus controls 4.0
HCMV, strain AD-169 = assay: Plaque reduction assay, HCMV strain AD-169; type: cell-based, Human Cytomegalovirus; parameters: TI50 (CD50 ÷ ED50): unit not given here; conditions: for EC50: read-out: ED50 (the source's name)
[2] = test system: HCMV, strain C8704 (DHPG resistant); assay: microbe, parasite or virus in culture; type: cell-based, Human Cytomegalovirus; parameters: TI50 (CD50 ÷ ED50): unit not given beside the values; conditions: for # Plaques: virus control 91.0 ± 8.4
[3] = test system: HCMV, strain C8805-37 (DHPG resistant); assay: microbe, parasite or virus in culture; type: cell-based, Human Cytomegalovirus; parameters: TI50 (CD50 ÷ ED50): unit not given beside the values; conditions: for # Plaques: virus control 11.5 ± 2.1
[4] = Cytotoxicity in plaque reduction assay, MRC-5 cells; type: cell-based, human; conditions: human, mrc-5 cells, read-out: CD50 (the source's name)
Method: (§1) Cytotoxicity was determined by examination of cells (located away from plaques) in infected wells which had been treated with drug.

[5] = Cytotoxicity in plaque reduction assay, Hs68 cells; type: cell-based; conditions: human, Table 5, previous data, read-out: CD50 (the source's name)
Method: as §1

[6] = test system: Varicella-Zoster Virus, strain Oka; assay: microbe, parasite or virus in culture; type: cell-based; parameters: TI50 (CD50 ÷ ED50): unit not given beside the values
[7] = Cytotoxicity in plaque reduction assay, CV-1 cells; type: cell-based, African Green Monkey; conditions: monkey, Table 9B, read-out: CD50 (the source's name)
in vitro = conditions: guinea pig, gpe cells
[8] = Human betaherpesvirus 5, MRC5, DHPG 1.0 μg/ml, read-out: % Reduction
[9] = Human betaherpesvirus 5, MRC5, DHPG 3.2 μg/ml, read-out: % Reduction
[10] = Human betaherpesvirus 5, MRC5, DHPG 10 μg/ml, read-out: % Reduction
[11] = Human betaherpesvirus 5, MRC5, DHPG 32 μg/ml, read-out: % Reduction
[12] = Human alphaherpesvirus 3, CV-1, read-out: % Reduction
[13] = Human alphaherpesvirus 3, MRC5, read-out: % Reduction

## Nc1nc(O)c2ncn(COC(CO)CO)c2n1 [DHPG, dihydroxypropoxymethylguanine, reference compound]
[1]; Caviid betaherpesvirus 2, GPE cells, Table 3, read-out: ED50 (the source's name)
  EC50: 18.4 µg/mL (≈ 72.1 µM)
[1]; DHPG 1.0 μg/ml
  Average CPE: 4.0
[1]; DHPG 3.2 μg/ml
  Average CPE: 4.0
[1]; DHPG 10 μg/ml
  Average CPE: 3.5
[1]; DHPG 32 μg/ml
  Average CPE: 0.7
[1]; DHPG 100 μg/ml
  Average CPE: 0
[1]; DHPG 320 μg/ml
  Average CPE: 0
[1]; DHPG 1000 μg/ml
  Average CPE: 0
[1]; GPE cells, Table 3
  TI50 (CD50 ÷ ED50): > 54
HCMV, strain AD-169; Hs-68 cells, Table 5
  TI50 (CD50 ÷ ED50): > 526
HCMV, strain AD-169; Hs-68 cells, DHPG 1.0 μg/ml, virus control 74.2 ± 8.6
  # Plaques: 68.5
HCMV, strain AD-169; Hs-68 cells, DHPG 3.2 μg/ml, virus control 74.2 ± 8.6
  # Plaques: 7
HCMV, strain AD-169; Hs-68 cells, DHPG .32 μg/ml, virus control 74.2 ± 8.6
  # Plaques: 100.5
HCMV, strain AD-169; Human betaherpesvirus 5, AD169, Hs68, Hs-68 cells, Table 5
  EC50: 1.9 µg/mL (≈ 7.44 µM)
HCMV, strain AD-169; Human betaherpesvirus 5, AD169, MRC5, MRC-5 cells, Table 4
  EC50: 3.7 µg/mL (≈ 14.5 µM)
HCMV, strain AD-169; MRC-5 cells, Table 4
  TI50 (CD50 ÷ ED50): > 27
HCMV, strain AD-169; MRC-5 cells, DHPG 3.2 μg/ml, virus control 26.4 ± 5.2
  # Plaques: 15
HCMV, strain AD-169; MRC-5 cells, DHPG 10 μg/ml, virus control 26.4 ± 5.2
  # Plaques: 0.5
HCMV, strain AD-169; MRC-5 cells, DHPG 32 μg/ml, virus control 26.4 ± 5.2
  # Plaques: 0
HCMV, strain AD-169; MRC-5 cells, DHPG 100 μg/ml, virus control 26.4 ± 5.2
  # Plaques: 0
[2]; DHPG 1.0 μg/ml
  # Plaques: 92.5
[2]; DHPG 3.2 μg/ml
  # Plaques: 85
[2]; DHPG 10 μg/ml
  # Plaques: 80
[2]; DHPG 32 μg/ml
  # Plaques: 91
[2]; [8]
  inhibition at 1 µg/mL: 0%
[2]; [9]
  inhibition at 3.2 µg/mL: 0%
[2]; [10]
  inhibition at 10 µg/mL: 0%
[2]; [11]
  inhibition at 32 µg/mL: 41%
[2]; Human betaherpesvirus 5, MRC5, MRC-5 cells, Table 6, read-out: ED50 (the source's name)
  EC50: > 32 µg/mL
[2]; Human betaherpesvirus 5, MRC5, MRC-5 cells, Table 6, read-out: ED50, approximate value in parentheses
  EC50: ~41 µg/mL (≈ 161 µM)
[2]; MRC-5 cells, Table 6
  TI50 (CD50 ÷ ED50): > 24
[3]; DHPG 1.0 μg/ml
  # Plaques: 13
[3]; DHPG 3.2 μg/ml
  # Plaques: 6.5
[3]; DHPG 10 μg/ml
  # Plaques: 10
[3]; DHPG 32 μg/ml
  # Plaques: 4.5
[3]; [8]
  inhibition at 1 µg/mL: 0%
[3]; [9]
  inhibition at 3.2 µg/mL: 43%
[3]; [10]
  inhibition at 10 µg/mL: 0%
[3]; [11]
  inhibition at 32 µg/mL: 61%
[3]; Human betaherpesvirus 5, MRC5, MRC-5 cells, Table 7, read-out: ED50 (the source's name)
  EC50: 11 µg/mL (≈ 43.1 µM)
[3]; MRC-5 cells, Table 7
  TI50 (CD50 ÷ ED50): > 91
[4]; Table 4
  CC50: > 100 µg/mL
[4]; Table 6, previous data
  CC50: > 1000 µg/mL
[4]; Table 7, previous data
  CC50: > 1000 µg/mL
[4]; Table 9A, previous data
  CC50: > 1000 µg/mL
[5]
  CC50: > 1000 µg/mL
[6]; CV-1 cells, DHPG 3.2 μg/ml, virus control 70.25 ± 6.9
  # Plaques: 77
[6]; CV-1 cells, DHPG 10 μg/ml, virus control 70.25 ± 6.9
  # Plaques: 63
[6]; [12]
  inhibition at 3.2 µg/mL: 0%
  inhibition at 10 µg/mL: 10%
[6]; Human alphaherpesvirus 3, CV-1, read-out: ED50
  EC50: > 10 µg/mL
[6]; [13]
  inhibition at 0.32 µg/mL: 0%
  inhibition at 1 µg/mL: 0%
  inhibition at 3.2 µg/mL: 0%
  inhibition at 10 µg/mL: 62%
[6]; Human alphaherpesvirus 3, MRC5, read-out: ED50
  EC50: 8 µg/mL (≈ 31.3 µM)
[6]; MRC-5 cells, Table 9A
  TI50 (CD50 ÷ ED50): > 125
[6]; MRC-5 cells, DHPG 0.32 μg/ml, virus control 32.7 ± 9.3
  # Plaques: 24.5
[6]; MRC-5 cells, DHPG 1.0 μg/ml, virus control 32.7 ± 9.3
  # Plaques: 37
[6]; MRC-5 cells, DHPG 3.2 μg/ml, virus control 32.7 ± 9.3
  # Plaques: 25
[6]; MRC-5 cells, DHPG 10 μg/ml, virus control 32.7 ± 9.3
  # Plaques: 12.5
[7]
  CC50: > 10 µg/mL
In vitro
  CC50: > 1000 µg/mL
